These results are taken from US20130040944A1, “MGLUR4 ALLOSTERIC POTENTIATORS, COMPOSITIONS, AND METHODS OF TREATING NEUROLOGICAL DYSFUNCTION” (VANDERBILT UNIVERSITY, priority 2009, published 2013).

As a reminder, the EC50 is the concentration giving half of the maximal effect.

This assay deals with human mGluR4 (Homo sapiens, UniProt Q14833). Nature of the assay: potentiation of human mGluR4 in transfected CHO cells, Ca2+-sensitive dye fluorescence, EC20 agonist. The following applies: hEC50, human mGluR4 potentiation; unit inferred.
human mGluR4, sequence (Q14833 33-912): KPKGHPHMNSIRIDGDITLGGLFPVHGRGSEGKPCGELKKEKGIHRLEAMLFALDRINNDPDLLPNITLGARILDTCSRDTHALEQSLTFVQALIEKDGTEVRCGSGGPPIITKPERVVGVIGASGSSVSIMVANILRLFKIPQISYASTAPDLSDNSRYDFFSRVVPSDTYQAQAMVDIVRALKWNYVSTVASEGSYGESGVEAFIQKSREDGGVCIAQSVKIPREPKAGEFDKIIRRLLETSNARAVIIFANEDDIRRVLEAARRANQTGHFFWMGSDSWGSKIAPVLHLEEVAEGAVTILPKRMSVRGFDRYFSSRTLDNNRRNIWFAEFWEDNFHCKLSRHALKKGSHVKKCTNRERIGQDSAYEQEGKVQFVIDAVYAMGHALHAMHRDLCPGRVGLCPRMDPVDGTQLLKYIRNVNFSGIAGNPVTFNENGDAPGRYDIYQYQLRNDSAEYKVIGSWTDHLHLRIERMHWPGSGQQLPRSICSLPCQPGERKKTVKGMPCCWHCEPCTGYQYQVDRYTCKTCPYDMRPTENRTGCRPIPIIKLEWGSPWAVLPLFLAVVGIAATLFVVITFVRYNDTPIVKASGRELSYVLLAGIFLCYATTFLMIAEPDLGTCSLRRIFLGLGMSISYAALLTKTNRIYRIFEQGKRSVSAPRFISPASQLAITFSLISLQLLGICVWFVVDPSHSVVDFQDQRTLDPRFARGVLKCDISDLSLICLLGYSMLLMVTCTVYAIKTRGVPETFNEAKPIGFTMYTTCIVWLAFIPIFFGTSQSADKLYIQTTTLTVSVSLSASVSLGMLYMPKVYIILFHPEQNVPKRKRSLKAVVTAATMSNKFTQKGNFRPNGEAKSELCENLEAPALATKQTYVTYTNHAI
Turning to `O=C(Nc1ccn(S(=O)(=O)c2cc(F)c(F)c(F)c2)c1)c1ccccn1` [Example 126, N-(1-((3,4,5-trifluorophenyl)sulfonyl)-1H-pyrrol-3-yl)picolinamide], the EC50 came out at 276 nM. Regarding `Cc1nc(C)c(S(=O)(=O)n2ccc(NC(=O)c3ccccn3)c2)s1` [Example 127, N-(1-((2,4-dimethylthiazol-5-yl)sulfonyl)-1H-pyrrol-3-yl)picolinamide], the EC50 was 2950 nM. As for `O=C(Nc1ccn(S(=O)(=O)c2ccc(F)c(Cl)c2)c1)c1ccccn1` [Example 128, N-(1-((3-chloro-4-fluorophenyl)sulfonyl)-1H-pyrrol-3-yl)picolinamide], the figure is 640 nM. `COc1ccc(S(=O)(=O)n2ccc(NC(=O)c3ccccn3)c2)cc1` [Example 129, N-(1-((4-methoxyphenyl)sulfonyl)-1H-pyrrol-3-yl)picolinamide]: the EC50 was 107 nM. The same measure for `N#Cc1ccc(S(=O)(=O)n2ccc(NC(=O)c3ccccn3)c2)cc1` [Example 130, N-(1-((4-cyanophenyl)sulfonyl)-1H-pyrrol-3-yl)picolinamide]: 220 nM. The same measure for `O=C(Nc1ccn(S(=O)(=O)c2ccc(Cl)s2)c1)c1ccccn1` [Example 131, N-(1-((5-chlorothiophen-2-yl)sulfonyl)-1H-pyrrol-3-yl)picolinamide]: 1040 nM; for `O=C(Nc1ccn(S(=O)(=O)c2ccsc2)c1)c1ccccn1` [Example 132, N-(1-(thiophen-3-ylsulfonyl)-1H-pyrrol-3-yl)picolinamide]: 413 nM; for `O=C(Nc1ccn(S(=O)(=O)c2ccc3c(c2)OCO3)c1)c1ccccn1` [Example 133, N-(1-(benzo[d][1,3]dioxol-5-ylsulfonyl)-1H-pyrrol-3-yl)picolinamide]: 110 nM.

On to `O=C(Nc1ccn(S(=O)(=O)c2cccs2)c1)c1ccccn1` [Example 134, N-(1-(thiophen-2-ylsulfonyl)-1H-pyrrol-3-yl)picolinamide], for which the EC50 came to 80 nM. As for `Cc1ccc(S(=O)(=O)n2ccc(NC(=O)c3ccccn3)c2)s1` [Example 135, N-(1-((5-methylthiophen-2-yl)sulfonyl)-1H-pyrrol-3-yl)picolinamide], the EC50 was 88.7 nM. As to `O=C(Nc1ccn(S(=O)(=O)c2cnc3ccccc3c2)c1)c1ccccn1` [Example 136, N-(1-(quinolin-3-ylsulfonyl)-1H-pyrrol-3-yl)picolinamide], the EC50 was 253 nM. Regarding `O=C(Nc1ccn(S(=O)(=O)c2cccnc2Cl)c1)c1ccccn1` [Example 137, N-(1-((2-chloropyridin-3-yl)sulfonyl)-1H-pyrrol-3-yl)picolinamide], the EC50 is 3790 nM. Turning to `O=C(Nc1ccn(S(=O)(=O)c2ccc(Cl)cc2F)c1)c1ccccn1` [Example 138, N-(1-((4-chloro-2-fluorophenyl)sulfonyl)-1H-pyrrol-3-yl)picolinamide], the EC50 was determined as 243 nM. As for `O=C(Nc1ccn(S(=O)(=O)c2ccc(F)c(F)c2F)c1)c1ccccn1` [Example 139, N-(1-((2,3,4-trifluorophenyl)sulfonyl)-1H-pyrrol-3-yl)picolinamide], the figure is 301 nM; as for `COc1ccc(S(=O)(=O)n2ccc(NC(=O)c3ccccn3)c2)cn1` [Example 140, N-(1-((6-methoxypyridin-3-yl)sulfonyl)-1H-pyrrol-3-yl)picolinamide], 116 nM. As for `Cc1noc(C)c1S(=O)(=O)n1ccc(NC(=O)c2ccccn2)c1` [Example 141, N-(1-((3,5-dimethylisoxazol-4-yl)sulfonyl)-1H-pyrrol-3-yl)picolinamide], the EC50 is 8320 nM.

For `Cn1cc(S(=O)(=O)n2ccc(NC(=O)c3ccccn3)c2)cn1` [Example 143, N-(1-((1-methyl-1H-pyrazol-4-yl)sulfonyl)-1H-pyrrol-3-yl)picolinamide], the EC50 is 4790 nM. Regarding `O=C(Nc1ccn(S(=O)(=O)c2ccc(N3CCOCC3)nc2)c1)c1ccccn1` [Example 144, N-(1-((6-morpholinopyridin-3-yl)sulfonyl)-1H-pyrrol-3-yl)picolinamide], the EC50 came out at 1070 nM. Consider `CN1CCOc2cc(S(=O)(=O)n3ccc(NC(=O)c4ccccn4)c3)ccc21` [Example 146, N-(1-((4-methyl-3,4-dihydro-2H-benzo[b][1,4]oxazin-7-yl)sulfonyl)-1H-pyrrol-3-yl)picolinamide], for which the concentration for a half-maximal effect (EC50) came to 144 nM. For `O=C(Nc1ccn(S(=O)(=O)c2ccc(CCl)cc2)c1)c1ccccn1` [Example 147, N-(1-((4-(chloromethyl)phenyl)sulfonyl)-1H-pyrrol-3-yl)picolinamide], the EC50 was 225 nM.

For `O=C(Nc1ccn(S(=O)(=O)c2ccc3c(c2)OCCCO3)c1)c1ccccn1` [Example 148, N-(1-((3,4-dihydro-2H-benzo[b][1,4]dioxepin-7-yl)sulfonyl)-1H-pyrrol-3-yl)picolinamide], the EC50 was determined as 41.1 nM. The same measure for `CC1(C)CCc2cc(S(=O)(=O)n3ccc(NC(=O)c4ccccn4)c3)ccc2O1` [Example 149, N-(1-((2,2-dimethylchroman-6-yl)sulfonyl)-1H-pyrrol-3-yl)picolinamide]: 351 nM; for `O=C(Nc1ccn(S(=O)(=O)c2ccc3occc3c2)c1)c1ccccn1` [Example 150, N-(1-(benzofuran-5-ylsulfonyl)-1H-pyrrol-3-yl)picolinamide]: 84.3 nM; for `Cc1ccc(S(=O)(=O)n2cc(NC(=O)c3ccccn3)cc2C)cc1` [Example 151, N-(5-methyl-1-tosyl-1H-pyrrol-3-yl)picolinamide]: 3810 nM. The same measure for `O=C1CCc2ccc(S(=O)(=O)n3ccc(NC(=O)c4ccccn4)c3)cc2N1` [Example 152, N-(1-((2-oxo-1,2,3,4-tetrahydroquinolin-7-yl)sulfonyl)-1H-pyrrol-3-yl)picolinamide]: 917 nM; for `COC(=O)c1ccc(S(=O)(=O)n2ccc(NC(=O)c3ccccn3)c2)cc1` [Example 153, Methyl 4-((3-(picolinamido)-1H-pyrrol-1-yl)sulfonyl)benzoate]: 285 nM.

In the case of `O=C(Nc1ccn(S(=O)(=O)c2ccc(N3CCCC3=O)cc2)c1)c1ccccn1` [Example 154, N-(1-((4-(2-oxopyrrolidin-1-yl)phenyl)sulfonyl)-1H-pyrrol-3-yl)picolinamide], the EC50 stood at 543 nM.

Consider `O=C(O)c1ccc(S(=O)(=O)n2ccc(NC(=O)c3ccccn3)c2)cc1` [Example 155, 4-((3-(picolinamido)-1H-pyrrol-1-yl)sulfonyl)benzoic acid], for which the EC50 amounted to 6380 nM. As for `O=C(Nc1ccn(S(=O)(=O)c2ccc3c(c2)OCCO3)c1)c1ccccn1` [Example 156, N-(1-((2,3-dihydrobenzo[b][1,4]dioxin-6-yl)sulfonyl)-1H-pyrrol-3-yl)picolinamide], the figure is 45.3 nM; as for `Cc1ccc(S(=O)(=O)c2cc(NC(=O)c3ccccn3)cn2C)cc1` [Example 157, N-(1-methyl-5-tosyl-1H-pyrrol-3-yl)picolinamide], 3680 nM. `O=C(Nc1ccn(S(=O)(=O)c2ccc3[nH]c(=O)sc3c2)c1)c1ccccn1` [Example 158, N-(1-((2-oxo-2,3-dihydrobenzo[d]thiazol-6-yl)sulfonyl)-1H-pyrrol-3-yl)picolinamide]: the EC50 was found to be 550 nM. The same measure for `Cn1ccc(S(=O)(=O)n2ccc(NC(=O)c3ccccn3)c2)n1` [Example 159, N-(1-((1-methyl-1H-pyrazol-3-yl)sulfonyl)-1H-pyrrol-3-yl)picolinamide]: 931 nM.

As to `O=C(Nc1ccn(S(=O)(=O)c2ccccn2)c1)c1ccccn1` [Example 160, N-(1-(pyridin-2-ylsulfonyl)-1H-pyrrol-3-yl)picolinamide], the EC50 turned out to be 1490 nM. Turning to `O=C(Nc1ccn(S(=O)(=O)c2ccc(CO)cc2)c1)c1ccccn1` [Example 161, N-(1-((4-(hydroxymethyl)phenyl)sulfonyl)-1H-pyrrol-3-yl)picolinamide], the EC50 is 1210 nM. In the case of `O=C(Nc1ccn(S(=O)(=O)c2cccc(Cl)c2F)c1)c1ccco1` [Example 162, N-(1-((3-chloro-2-fluorophenyl)sulfonyl)-1H-pyrrol-3-yl)furan-2-carboxamide], the EC50 came out at 2540 nM. As for `O=C(Nc1ccn(S(=O)(=O)c2ccc(OC(F)F)cc2)c1)c1ccco1` [Example 163, N-(1-((4-(difluoromethoxy)phenyl)sulfonyl)-1H-pyrrol-3-yl)furan-2-carboxamide], the figure is 3240 nM. As for `COc1ccc(S(=O)(=O)n2ccc(NC(=O)c3ccco3)c2)cc1` [Example 164, N-(1-((4-methoxyphenyl)sulfonyl)-1H-pyrrol-3-yl)furan-2-carboxamide], the figure is 701 nM; as for `O=C(Nc1ccn(S(=O)(=O)c2ccc3c(c2)OCO3)c1)c1ccco1` [Example 166, N-(1-(benzo[d][1,3]dioxol-5-ylsulfonyl)-1H-pyrrol-3-yl)furan-2-carboxamide], 1940 nM. Consider `O=C(Nc1ccn(S(=O)(=O)c2ccc(Cl)cn2)c1)c1ccco1` [Example 167, N-(1-((5-chloropyridin-2-yl)sulfonyl)-1H-pyrrol-3-yl)furan-2-carboxamide], for which the EC50 stood at 2860 nM. As for `COc1ccc(S(=O)(=O)n2ccc(NC(=O)c3ccco3)c2)cn1` [Example 168, N-(1-((6-methoxypyridin-3-yl)sulfonyl)-1H-pyrrol-3-yl)furan-2-carboxamide], the figure is 2120 nM; as for `O=C(Nc1ccn(S(=O)(=O)c2ccc(Cl)cc2F)c1)c1ccco1` [Example 169, N-(1-((4-chloro-2-fluorophenyl)sulfonyl)-1H-pyrrol-3-yl)furan-2-carboxamide], 4130 nM.
